Measured values from ChEMBL document CHEMBL1137021, “The phenolic diterpene totarol inhibits multidrug efflux pump activity in Staphylococcus aureus” (Antimicrob Agents Chemother, 2007).
Values after ≈ are worked out from the molar mass of the structure shown. Active and inactive are the calls of the source. The rule behind the calls is not given here.

How the values were obtained:
Staphylococcus aureus [1] = assay: Antimicrobial activity against NorA deficient Staphylococcus aureus K1758; format: functional
Staphylococcus aureus [2] = assay: Antimicrobial activity against Staphylococcus aureus NCTC 8325-4 expressing NorA gene; format: functional
Staphylococcus aureus [3] = assay: Antimicrobial activity against Staphylococcus aureus K3092 overexpressing NorA gene; format: functional
Staphylococcus aureus [4] = assay: Antimicrobial activity against totarol-resistant Staphylococcus aureus K3090; format: functional
[5] = target: T1, Quinolone resistance protein NorA (Staphylococcus aureus, UniProt P0A0J7); assay: Inhibition of NorA efflux pump in Staphylococcus aureus K3092 assessed as inhibition of EtBr efflux
T1 sequence (P0A0J7 whole entry): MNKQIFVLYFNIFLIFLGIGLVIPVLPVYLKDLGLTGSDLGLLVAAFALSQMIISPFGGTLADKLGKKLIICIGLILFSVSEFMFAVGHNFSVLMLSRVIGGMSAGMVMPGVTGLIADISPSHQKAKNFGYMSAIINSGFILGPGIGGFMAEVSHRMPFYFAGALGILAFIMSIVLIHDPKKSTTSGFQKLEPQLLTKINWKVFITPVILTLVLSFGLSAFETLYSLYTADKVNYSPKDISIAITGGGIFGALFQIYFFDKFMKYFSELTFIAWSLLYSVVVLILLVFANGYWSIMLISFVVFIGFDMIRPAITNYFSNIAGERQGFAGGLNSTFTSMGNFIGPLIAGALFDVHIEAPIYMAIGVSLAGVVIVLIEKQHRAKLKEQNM

[6] = target: T2, Quinolone resistance protein NorA (Staphylococcus aureus) (UniProt P0A0J7); assay: Inhibition of NorA efflux pump in Staphylococcus aureus isolate15 assessed as potentiation of oxacillin MIC
T2 sequence (whole entry): T1 sequence (P0A0J7 whole entry)

[7] = Ratio of inhibition of CHO cells to IC50 for chloroquine-resistant Plasmodium falciparum
Staphylococcus aureus [8] = assay: Antimicrobial activity against Staphylococcus aureus ATCC 25923; format: functional
Plasmodium falciparum = assay: Antiplasmodial activity against chloroquine-resistant Plasmodium falciparum; format: functional, organism-based
[9] = target: T2, Quinolone resistance protein NorA (Staphylococcus aureus); assay: Inhibition of NorA efflux pump in methicillin-resistant Staphylococcus aureus assessed as reduction in methicillin MIC
[10] = target: T2, Quinolone resistance protein NorA (Staphylococcus aureus); assay: Inhibition of NorA efflux pump in Staphylococcus aureus K3092 assessed as reduction in ethidium bromide MIC
[11] = target: T2, Quinolone resistance protein NorA (Staphylococcus aureus); assay: Inhibition of NorA efflux pump in Staphylococcus aureus 1199B assessed as reduction in Norfloxacin MIC at 1 ug/ml
Staphylococcus aureus [12] = assay: Antimicrobial activity against Staphylococcus aureus XU212 expressing tetK pump; format: functional, organism-based
[13] = target: T2, Quinolone resistance protein NorA (Staphylococcus aureus); assay: Inhibition of NorA efflux pump in Staphylococcus aureus 1199B assessed as reduction in ethidium bromide MIC
Staphylococcus aureus [14] = assay: Inhibition of MsrA efflux pump in Staphylococcus aureus RN4220 assessed as reduction in erythromycin MIC at 1 ug/ml
Staphylococcus aureus [15] = assay: Antimicrobial activity against Staphylococcus aureus 1199B expressing NorA pump; format: functional, organism-based
Staphylococcus aureus [16] = assay: Inhibition of tetK efflux pump in Staphylococcus aureus XU212 assessed as reduction in tetracycline MIC at 1 ug/ml
Staphylococcus aureus [17] = assay: Antimicrobial activity against Staphylococcus aureus RN4220 expressing MsrA protein; format: functional, organism-based

Question: Which MIC (Staphylococcus aureus [1]) does the source give for `CC[n+]1c(-c2ccccc2)c2cc(N)ccc2c2ccc(N)cc21.[Br-]` [HOMIDIUM BROMIDE] here?
Answer: 0.63 µg/mL

Question: What about the MIC (Staphylococcus aureus [2]) of the same molecule?
Answer: 6.25 µg/mL

Question: What about the MIC (Staphylococcus aureus [3]) of the same molecule?
Answer: 100 µg/mL

Question: And the MIC (Staphylococcus aureus [4])?
Answer: 0.63 µg/mL

Question: For `COC(=O)[C@H]1[C@H]2C[C@@H]3c4[nH]c5cc(OC)ccc5c4CCN3C[C@H]2C[C@@H](OC(=O)c2cc(OC)c(OC)c(OC)c2)[C@@H]1OC` [RESERPINE], which IC50 [5] is on record?
Answer: 8 µM

Question: What does the source list for `CC(C)c1c(O)ccc2c1CC[C@H]1C(C)(C)CCC[C@]21C` [TOTAROL]?
Answer: MIC (Staphylococcus aureus [1]): 1.25 µg/mL (≈ 4.36 µM); fold change (FC) [6]: 50; Ratio [7]: 40; MIC (Staphylococcus aureus [8]): 2 µg/mL (≈ 6.98 µM); IC50 (Plasmodium falciparum): 4.29 µM; fold change (FC) [9]: 8; MIC (Staphylococcus aureus [2]): 2.5 µg/mL (≈ 8.73 µM); Activity [10]: Active; fold change (FC) [11]: 4; MIC (Staphylococcus aureus [3]): 16 µg/mL (≈ 55.9 µM); Activity (Staphylococcus aureus [12]): Active; Activity [13]: Active; IC50 [5]: 15 µM; fold change (FC) (Staphylococcus aureus [14]): 8; MIC (Staphylococcus aureus [4]): 16 µg/mL (≈ 55.9 µM); Activity (Staphylococcus aureus [15]): Active; fold change (FC) (Staphylococcus aureus [16]): 4; Activity (Staphylococcus aureus [17]): Active
